Reference: publication PMC6372556, “The Neisseria gonorrhoeae Methionine Sulfoxide Reductase (MsrA/B) Is a Surface Exposed, Immunogenic, Vaccine Candidate” (Frontiers in Immunology, 2019)

Molecular target: T1, MsrA/B
T1 construct: recombinant, msr gene of strain 1291 in pET15b (NdeI/XhoI primers), His-tagged, E. coli BL21 Star (DE3)pLysS, TALON purified; full protein 522 aa; amine-coupled to SPR chip
Experiment: SPR, Biacore T200, single cycle kinetics, MsrA/B immobilized by amine coupling on CM5 chip
Format: binding, Neisseria gonorrhoeae
Conditions: free Met(O) 0.16-100 nM; no serum; substrate; sulfoxide epimer and D/L form not told
Source text: SPR, Biacore T200, single cycle kinetics, MsrA/B immobilized by amine coupling on CM5 chip on MsrA/B | MsrA/B bound to Met(O) with a high affinity, with a KD

Work on `C[S+]([O-])CC[C@H](N)C(=O)O` (stereo partly shown) [Met(O)] yielded a Kd of 0.0154 ± 0.0037 µM.
